SMILES strings stand for the structures. ± gives the standard deviation of the averaged measurements.

What all share (assay): control-subtracted net OSN firing rate; higher = stronger neuronal activation
One assay concerns S. montana pb1a-like. Here is the method:
(§1)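 Dose-response single sensillum recordings from pb1a (D. melanogaster Canton-S) and pb1a-like (Scaptomyza) maxillary palp OSNs. Odorants were given at 10^-5 to 10^-2 vol/vol in mineral oil (γ-hexalactone in DMSO) as 1 s pulses. The read-out is the control-subtracted net spikes/s in a 0.5 s window.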

For the next assay, the system named is S. flava pb1a-like. Here is the method:
as §1

A further assay deals with S. pallida pb1a-like. How it is done: as §1
Another assay concerns Canton-S pb1a. How it is done:
as §1

Another assay has as its system S. hsui pb1a-like. How it is done:
as §1

Setting [1] is: odorant dilution (vol/vol): 10^-2.
Setting [2] is: odorant dilution (vol/vol): 10^-3.
[3] abbreviates: odorant dilution (vol/vol): 10^-4.
[4] abbreviates: odorant dilution (vol/vol): 10^-5.

Regarding `CC(C)CN=C=S` [isobutyl isothiocyanate], the “control-subtracted net OSN firing rate” value was 164 ± 20 spikes/s with S. montana pb1a-like (setting [1]); 84.7 ± 14 spikes/s in the assay on S. montana pb1a-like (setting [2]); 17.3 ± 5.9 spikes/s with S. montana pb1a-like (setting [3]); 2 ± 5.8 spikes/s with S. montana pb1a-like (setting [4]); 179 ± 22 spikes/s in the assay with S. flava pb1a-like (setting [1]); 93 ± 16 spikes/s with S. flava pb1a-like (setting [2]). For the same molecule, the “control-subtracted net OSN firing rate” value in the assay with S. flava pb1a-like (setting [3]) is 23.3 ± 7.5 spikes/s; with S. flava pb1a-like (setting [4]) it was 5.67 ± 4.6 spikes/s.

Take `CCCCN=C=S` [butyl isothiocyanate]: the “control-subtracted net OSN firing rate” value in the assay with S. montana pb1a-like (setting [1]) was found to be 124 ± 14 spikes/s; in the assay with S. montana pb1a-like (setting [2]), 42.3 ± 22 spikes/s; in the assay on S. montana pb1a-like (setting [3]), 10 ± 14 spikes/s; in the assay with S. montana pb1a-like (setting [4]), 0.667 ± 9.1 spikes/s; with S. flava pb1a-like (setting [1]), 146 ± 29 spikes/s; with S. flava pb1a-like (setting [2]) it was 65.7 ± 36 spikes/s. Further, the “control-subtracted net OSN firing rate” value in the assay with S. flava pb1a-like (setting [3]) was 21.7 ± 10 spikes/s; in the assay with S. flava pb1a-like (setting [4]) it was -4 ± 10 spikes/s.

As to `CCC1CCC(=O)O1` (centres undefined) [γ-hexalactone], the “control-subtracted net OSN firing rate” value in the assay with S. pallida pb1a-like (setting [1]) stood at 152 ± 15 spikes/s; with S. pallida pb1a-like (setting [2]) it was 98.7 ± 50 spikes/s; in the assay with S. pallida pb1a-like (setting [3]) it was 34.3 ± 35 spikes/s; in the assay on S. pallida pb1a-like (setting [4]), 11.3 ± 15 spikes/s; with S. montana pb1a-like (setting [1]), 186 ± 42 spikes/s; in the assay on S. montana pb1a-like (setting [2]), 93.7 ± 28 spikes/s. The “control-subtracted net OSN firing rate” value in the assay with S. montana pb1a-like (setting [3]) was 21.3 ± 13 spikes/s; in the assay on S. montana pb1a-like (setting [4]), -2 ± 9.8 spikes/s; in the assay on Canton-S pb1a (setting [1]) it was 286 ± 56 spikes/s; with Canton-S pb1a (setting [2]), 217 ± 84 spikes/s; in the assay on Canton-S pb1a (setting [3]), 33 ± 18 spikes/s; in the assay on Canton-S pb1a (setting [4]) it was 22.7 ± 15 spikes/s. Moreover, the “control-subtracted net OSN firing rate” value turned out to be 163 ± 14 spikes/s in the assay with S. hsui pb1a-like (setting [1]); 128 ± 14 spikes/s in the assay on S. hsui pb1a-like (setting [2]); 53 ± 17 spikes/s in the assay with S. hsui pb1a-like (setting [3]); 43.7 ± 11 spikes/s in the assay on S. hsui pb1a-like (setting [4]); 182 ± 37 spikes/s in the assay with S. flava pb1a-like (setting [1]); 42.6 ± 26 spikes/s in the assay with S. flava pb1a-like (setting [2]). Besides, the results for the “control-subtracted net OSN firing rate” value in the assay with S. flava pb1a-like (setting [3]) and in the assay with S. flava pb1a-like (setting [4]) were 3.14 ± 9.9 spikes/s and -3.43 ± 8 spikes/s, respectively.

Turning to `CCC/C=C/C=O` [trans-2-hexenal], the “control-subtracted net OSN firing rate” value is 145 ± 31 spikes/s with S. pallida pb1a-like (setting [1]); 119 ± 40 spikes/s in the assay on S. pallida pb1a-like (setting [2]); 26.4 ± 24 spikes/s with S. pallida pb1a-like (setting [3]); 5.78 ± 13 spikes/s in the assay with S. pallida pb1a-like (setting [4]); 187 ± 11 spikes/s in the assay with S. montana pb1a-like (setting [1]); 156 ± 23 spikes/s in the assay with S. montana pb1a-like (setting [2]). In addition, the “control-subtracted net OSN firing rate” value in the assay with S. montana pb1a-like (setting [3]) was 72 ± 19 spikes/s; in the assay with S. montana pb1a-like (setting [4]), 26.7 ± 4.8 spikes/s; in the assay on Canton-S pb1a (setting [1]) it was 121 ± 35 spikes/s; in the assay on Canton-S pb1a (setting [2]), 34.7 ± 14 spikes/s; in the assay on Canton-S pb1a (setting [3]) it was 5 ± 3.5 spikes/s; with Canton-S pb1a (setting [4]), -3 ± 6.4 spikes/s. Besides, the “control-subtracted net OSN firing rate” value was determined as 130 ± 48 spikes/s in the assay with S. hsui pb1a-like (setting [1]); 55.7 ± 31 spikes/s in the assay on S. hsui pb1a-like (setting [2]); 9 ± 11 spikes/s with S. hsui pb1a-like (setting [3]); 2.67 ± 11 spikes/s in the assay with S. hsui pb1a-like (setting [4]); 169 ± 30 spikes/s in the assay with S. flava pb1a-like (setting [1]); 159 ± 33 spikes/s in the assay on S. flava pb1a-like (setting [2]). Besides, the “control-subtracted net OSN firing rate” value with S. flava pb1a-like (setting [3]) is 136 ± 33 spikes/s; in the assay on S. flava pb1a-like (setting [4]), 58.6 ± 19 spikes/s.

On to `C=CCN=C=S` [allyl isothiocyanate], for which the “control-subtracted net OSN firing rate” value was 142 ± 25 spikes/s in the assay with S. pallida pb1a-like (setting [1]); 115 ± 44 spikes/s with S. pallida pb1a-like (setting [2]); 33.8 ± 19 spikes/s in the assay on S. pallida pb1a-like (setting [3]); 5.56 ± 14 spikes/s with S. pallida pb1a-like (setting [4]); 168 ± 26 spikes/s in the assay with S. montana pb1a-like (setting [1]); 118 ± 33 spikes/s with S. montana pb1a-like (setting [2]). Moreover, the “control-subtracted net OSN firing rate” value in the assay on S. montana pb1a-like (setting [3]) is 58.3 ± 35 spikes/s; with S. montana pb1a-like (setting [4]) it was 20 ± 9.4 spikes/s; with Canton-S pb1a (setting [1]), 153 ± 42 spikes/s; in the assay with Canton-S pb1a (setting [2]), 27 ± 7.3 spikes/s; in the assay with Canton-S pb1a (setting [3]), 2 ± 5.9 spikes/s; with Canton-S pb1a (setting [4]), -3.33 ± 5 spikes/s. Also, the “control-subtracted net OSN firing rate” value with S. hsui pb1a-like (setting [1]) was 132 ± 49 spikes/s; in the assay with S. hsui pb1a-like (setting [2]), 51.2 ± 27 spikes/s; in the assay with S. hsui pb1a-like (setting [3]), 6.75 ± 6 spikes/s; in the assay with S. hsui pb1a-like (setting [4]) it was -1 ± 12 spikes/s; in the assay on S. flava pb1a-like (setting [1]), 169 ± 40 spikes/s; with S. flava pb1a-like (setting [2]), 117 ± 38 spikes/s. In addition, the “control-subtracted net OSN firing rate” value was 50 ± 28 spikes/s in the assay with S. flava pb1a-like (setting [3]) and 11.4 ± 14 spikes/s in the assay with S. flava pb1a-like (setting [4]).

For `CCC(C)N=C=S` (centres undefined) [sec-butyl isothiocyanate], the “control-subtracted net OSN firing rate” value is 72.7 ± 9.3 spikes/s in the assay with S. montana pb1a-like (setting [1]); 13.3 ± 9.4 spikes/s with S. montana pb1a-like (setting [2]); -0.667 ± 7.1 spikes/s in the assay on S. montana pb1a-like (setting [3]); 0.667 ± 4.8 spikes/s with S. montana pb1a-like (setting [4]); 76.6 ± 22 spikes/s with S. flava pb1a-like (setting [1]); 19.7 ± 11 spikes/s in the assay on S. flava pb1a-like (setting [2]). Moreover, the entries for the “control-subtracted net OSN firing rate” value in the assay on S. flava pb1a-like (setting [3]) and in the assay on S. flava pb1a-like (setting [4]) were 3.14 ± 6.4 spikes/s and -2.57 ± 5.9 spikes/s, respectively.

In the case of `CCCC(=O)OCC` [ethyl butyrate], the “control-subtracted net OSN firing rate” value in the assay on S. pallida pb1a-like (setting [1]) was found to be 142 ± 26 spikes/s; with S. pallida pb1a-like (setting [2]), 135 ± 24 spikes/s; in the assay with S. pallida pb1a-like (setting [3]), 111 ± 39 spikes/s; in the assay on S. pallida pb1a-like (setting [4]) it was 20.2 ± 19 spikes/s; in the assay on S. montana pb1a-like (setting [1]), 236 ± 60 spikes/s; with S. montana pb1a-like (setting [2]) it was 150 ± 70 spikes/s. The “control-subtracted net OSN firing rate” value is 42.5 ± 25 spikes/s in the assay on S. montana pb1a-like (setting [3]); 7.5 ± 3.5 spikes/s with S. montana pb1a-like (setting [4]); 211 ± 10 spikes/s in the assay with Canton-S pb1a (setting [1]); 209 ± 12 spikes/s with Canton-S pb1a (setting [2]); 76.3 ± 41 spikes/s with Canton-S pb1a (setting [3]); 12.9 ± 4.5 spikes/s with Canton-S pb1a (setting [4]). In addition, the “control-subtracted net OSN firing rate” value in the assay with S. hsui pb1a-like (setting [1]) worked out at 150 ± 38 spikes/s; in the assay with S. hsui pb1a-like (setting [2]), 118 ± 43 spikes/s; in the assay on S. hsui pb1a-like (setting [3]) it was 46 ± 21 spikes/s; in the assay with S. hsui pb1a-like (setting [4]), 11 ± 22 spikes/s; in the assay with S. flava pb1a-like (setting [1]) it was 208 ± 60 spikes/s; with S. flava pb1a-like (setting [2]), 170 ± 59 spikes/s. Further, the “control-subtracted net OSN firing rate” value turned out to be 52.8 ± 54 spikes/s in the assay on S. flava pb1a-like (setting [3]) and 2 ± 7.4 spikes/s with S. flava pb1a-like (setting [4]).

Source of the values: the supplement of paper PMC11482750.
